Measured values from patent US20060079453A1, “Hla binding peptides and their uses” (priority 2002, published 2006).
Like-named read-outs stand apart in the source and are kept apart here. No end group written: not given here.

Assays:
Experiment in all cases: biochemical
Assay type in all cases: binding
[1] = molecular target: HLA-DR DRB1*1101 (DR11) (Homo sapiens, UniProt P01903+P01911, A100R/A169T/A87E/I96F/K41T/L162R/M171V/P40S/Q125H/Q178H/Q39Y/Q99D/R42S/S66Y/T262R/V115G/W38E)
[2] = molecular target: HLA-DR DRB1*1302 (DR13) (Homo sapiens, UniProt P01903+P01911, A100E/A169T/K41T/L162R/M171V/P40S/Q125H/Q178H/Q39Y/Q99D/R42S/S66N/T262R/V115G/W38E/Y61H); settings: read-out: DRBI *1302
[3] = molecular target: HLA-DR DRB3*0101 (DR52) (Homo sapiens, UniProt P01903+P79483)
[4] = molecular target: HLA-DR DRB4*0101 (DR53) (Homo sapiens, UniProt P01903+P13762, G164S)
[5] = molecular target: HLA-DR DRB5*0101 (DR51) (Homo sapiens, UniProt P01903+Q30154)
[6] = molecular target: HLA-DR DRB1*0101 (DR1) (Homo sapiens, UniProt P01903+P01911, A100R/D57E/F55L/F60I/F76Y/I96L/L162R/M171V/P40L/Q125E/R42F/V115G/Y59C)
[7] = molecular target: HLA-DR DRB1*0301 (DR3) (Homo sapiens, UniProt P01903+P01911, A100K/A102G/A103R/A169T/F55Y/I96L/K41T/L162R/M171V/P40S/Q125H/Q178H/Q39Y/R42S/S66N/T106N/T262R/W38E/Y61H)
[8] = molecular target: HLA-DR DRB1*0401 (DR4) (Homo sapiens, UniProt P01903+P01911, A100K/A169T/F76Y/I96L/K127E/L162R/M171V/N62H/P40V/Q125Y/R42H/S133A/S149N/S66Y/V115G/V209L/W38E)
[9] = molecular target: HLA-DR DRB1*0701 (DR7) (Homo sapiens, UniProt P01903+P01911, A100R/A102G/A103Q/D57E/D86V/E43K/F76Y/K127E/L162R/M171V/P40G/Q125H/Q99D/R33Q/R42Y/R54Q/S133A/S66F/T210M/V115G/Y107V/Y59L/Y89S)
[10] = molecular target: HLA-DR DRB1*0802 (DR8) (Homo sapiens, UniProt P01903+P01911, A100R/A103L/A169T/F76Y/H45Y/I96F/K41T/L162R/M171V/P40S/Q125H/Q178H/Q39Y/Q99D/R218S/R42G/S66Y/V115G/W38E)
[11] = molecular target: HLA-DR DRB1*0901 (DR9) (Homo sapiens, UniProt P01903+P01911, A100R/A103E/D57H/D86V/F55Y/F60I/F76Y/I96F/K127E/L162R/M171V/P40D/Q125H/Q99R/R33Q/R42F/S133A/S66N/T210M/V115G/W38K/Y107V/Y59G/Y89S)
[12] = molecular target: HLA-DR DRB1*1501 (DR15) (Homo sapiens, UniProt P01903+P01911)

Chain of HLA-DR DRB1*0301 (DR3) (P01903 26-254 limits assumed, other chains not shown): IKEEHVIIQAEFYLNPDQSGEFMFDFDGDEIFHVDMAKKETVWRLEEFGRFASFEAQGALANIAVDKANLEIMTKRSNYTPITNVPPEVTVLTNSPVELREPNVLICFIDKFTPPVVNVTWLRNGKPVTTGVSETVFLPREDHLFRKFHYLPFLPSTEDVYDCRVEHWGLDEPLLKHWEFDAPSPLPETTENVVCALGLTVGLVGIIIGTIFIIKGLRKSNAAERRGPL
Chain of HLA-DR DRB1*1101 (DR11) (P01903 26-254 limits assumed, other chains not shown): as above
Chain of HLA-DR DRB1*1302 (DR13) (P01903 26-254 limits assumed, other chains not shown): as above

Row | Compound | IC50 ([1]; read-out: DRB1 *1101) [nM] | IC50 ([3]; read-out: DRB3 *0101) [nM] | IC50 ([5]; read-out: DRB5 *0101) [nM] | IC50 ([6]; DRB1 *0101) [nM] | IC50 [7] [nM] | IC50 ([8]; DRB1 *0401) [nM] | IC50 ([9]; DRB1 *0701) [nM] | IC50 [10] [nM] | IC50 ([11]; DRB1 *0901) [nM] | IC50 ([4]; DRB4 *0101) [nM] | IC50 ([5]; DRB5 *0101) [nM] | also measured
1 | VAQVRGGNIVFELANS | > 50000 | > 21900 | 64400 | – | – | – | – | – | – | – | – | IC50 [2]: 2800 nM; IC50 ([4]; read-out: DRB4 *0101): 100 nM
2 | CC[C@H](C)[C@H](NC(=O)[C@H](CS)NC(=O)[C@H](Cc1c[nH]cn1)NC(=O)[C@H](C)NC(=O)[C@H](C)NC(=O)[C@@H](NC(=O)[C@H](CC(C)C)NC(=O)[C@@H](NC(=O)[C@H](Cc1c[nH]c2ccccc12)NC(=O)[C@H](CCC(N)=O)NC(=O)[C@@H]1CCCN1C(=O)[C@@H](N)Cc1c[nH]cn1)C(C)C)[C@@H](C)O)C(=O)N[C@@H](CCCNC(=N)N)C(=O)N[C@@H](CC(N)=O)C(=O)N[C@@H](CCCCN)C(=O)O | – | – | – | 13 | 3630 | 1620 | 283 | 1300 | 107 | 5520 | 40 | IC50 ([12]; DRBI *1501): 6500 nM
3 | CAWTIVRVEILRNFY | – | – | – | 66 | 3560 | 158 | 746 | 43700 | 757 | 152 | – | –
4 | HQAISPRTLNSPAIF | 33700 | > 83300 | > 200000 | – | – | – | – | – | – | – | – | IC50 ([12]; read-out: DRBI *1501): 8110 nM; IC50 ([4]; read-out: DRB4 *0101): 130 nM
5 | FVNQHLTGSHLVEAL | > 10500 | 94500 | > 43300 | – | – | – | – | – | – | – | – | IC50 ([12]; read-out: DRBI *1501): 799 nM
6 | AWYAWRNRCK | > 5000 | > 11100 | 44 | – | – | – | – | – | – | – | – | –
7 | YKTIAYDEEARR | – | – | – | – | – | – | – | – | – | – | ≥ 200000 | IC50 [3]: > 50000 nM
8 | LGFFPDHQLDPAFRAN | – | 1450 | – | – | – | – | – | – | – | – | – | –
9 | FYNQHLTGSHLVEAL | – | – | – | – | – | – | – | – | – | – | – | IC50 ([6]; read-out: DRB1 *0101): 9.2 nM; IC50 ([7]; read-out: DRB1 *0301): 67200 nM; IC50 ([8]; read-out: DRB1 *0401): 858 nM; IC50 ([9]; read-out: DRB1 *0701): 15 nM; IC50 ([10]; read-out: DRB1 *0802): > 54400 nM; IC50 ([11]; read-out: DRB1 *0901): 41500 nM
10 | CC[C@H](C)[C@H](NC(=O)[C@@H](N)CCC(N)=O)C(=O)N[C@@H](Cc1ccc(O)cc1)C(=O)N[C@H](C(=O)N[C@@H](C)C(=O)N[C@@H](C)C(=O)N[C@@H](Cc1ccccc1)C(=O)N[C@H](C(=O)N[C@H](C(=O)N[C@@H](CCC(N)=O)C(=O)N[C@@H](C)C(=O)N[C@@H](C)C(=O)N[C@@H](C)C(=O)N[C@@H](CCC(=O)O)C(=O)N[C@H](C(=O)O)[C@@H](C)O)C(C)C)[C@@H](C)O)C(C)C | – | – | – | 1.6 | 26600 | 1.6 | 324 | 102 | 65 | 50 | 216 | IC50 ([1]; DRB1 *1101): 34 nM; IC50 ([12]; DRBI *1501): 252 nM
